According to US11034698B2, “Pyrazolo[ 1,5a]pyrimidine derivatives as IRAK4 modulators” (priority 2017, dated 2021):
Read-outs that look alike come from different tables or passages of the source.

Target: human IRAK4 (Homo sapiens (Human), UniProt Q9NWZ3)
Test: IRAK4 kinase inhibition, Transcreener fluorescence polarization (ADP)
Format: biochemical
Experimental: Compounds were assayed for inhibition of human IRAK4 and IRAK1 catalytic activity using recombinant enzyme produced from insect cells. Full-length IRAK4 protein, carrying an N-terminal His6-Tag, was obtained from Life Technologies (Carlsbad, Calif., USA). The IRAK1 construct was produced internally and was comprised of IRAK1 residues Arg194 to Ser712, preceded by an NH2-terminal His6 tag and the coding sequence for glutathione-S-transferase.
Kinase activities were assayed using the Transcreener-Fluorecescence polarization platform (BelBrook Labs, Madison, Wis., USA) that measures amounts of the reaction product, ADP.

[1] = recombinant full-length His6-IRAK4 1.25 nM, 125 uM ATP, 125 uM peptide, 90 min, ATP Km 642 uM, read-out: IRAK4 Ki

Chain of human IRAK4 (Q9NWZ3 whole entry): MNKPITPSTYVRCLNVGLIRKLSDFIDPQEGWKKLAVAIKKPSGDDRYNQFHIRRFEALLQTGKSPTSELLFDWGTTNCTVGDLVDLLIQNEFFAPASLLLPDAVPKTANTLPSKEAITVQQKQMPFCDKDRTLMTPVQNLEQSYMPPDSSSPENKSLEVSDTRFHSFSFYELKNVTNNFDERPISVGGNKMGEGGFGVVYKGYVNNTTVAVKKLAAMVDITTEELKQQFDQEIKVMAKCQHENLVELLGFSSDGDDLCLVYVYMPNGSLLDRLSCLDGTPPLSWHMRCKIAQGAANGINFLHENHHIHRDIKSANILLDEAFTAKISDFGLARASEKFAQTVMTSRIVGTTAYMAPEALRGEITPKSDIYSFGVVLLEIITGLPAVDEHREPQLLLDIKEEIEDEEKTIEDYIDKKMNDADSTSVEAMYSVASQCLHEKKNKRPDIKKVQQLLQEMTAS

CC1(C)Cc2cc(NC(=O)c3cnn4cccnc34)c(N3CCN(C[C@H]4CCCC(=O)N4)CC3)cc2O1 (single isomer, unassigned) [Example 7]
Ki: 10 nM

CC[C@H]1CC(=O)NN1C1CCN(c2cc3c(cc2NC(=O)c2cnn4cccnc24)CC(C)(C)O3)CC1 (single isomer, unassigned) [Example 18]
Ki: 6.7 nM

CC1(C)Cc2cc(NC(=O)c3cnn4cccnc34)c(O[C@@H]3CN(CC(N)=O)C[C@H]3N)cc2O1 (single isomer, unassigned) [Example 20]
Ki: 17 nM

CCN1C[C@@H](COc2cc3c(cc2NC(=O)c2cnn4cccnc24)CC(C)(C)O3)CC1=O (single isomer, unassigned) [Example 23]
Ki: 250 nM

CN1C[C@@H](COc2cc3c(cc2NC(=O)c2cnn4cccnc24)CC(C)(C)O3)CC1=O (single isomer, unassigned) [Example 25]
Ki: 90 nM

CC1(C)Cc2cc(NC(=O)c3cnn4cccnc34)c(OC[C@H]3Cc4ccccc4[C@H]3N)cc2O1 (single isomer, unassigned) [Example 27]
Ki: 670 nM

CC1(C)Cc2cc(NC(=O)c3cnn4cccnc34)c(OC[C@H]3Cc4ccccc4[C@@H]3N)cc2O1 (single isomer, unassigned) [Example 28]
Ki: 260 nM

CC1(C)Cc2cc(NC(=O)c3cnn4cccnc34)c(OC[C@@H]3Cc4ccccc4[C@@H]3N)cc2O1 (single isomer, unassigned) [Example 29]
Ki: 780 nM

CC1(C)Cc2cc(NC(=O)c3cnn4cccnc34)c(OC[C@@H]3C[C@@H]4NCCO[C@H]4C3)cc2O1 (single isomer, unassigned) [Example 31]
Ki: 60 nM

CC1(C)Cc2cc(NC(=O)c3cnn4cccnc34)c(OC[C@@H]3C[C@H]4NCCO[C@@H]4C3)cc2O1 (single isomer, unassigned) [Example 32]
Ki: 720 nM

CC1(C)Cc2cc(NC(=O)c3cnn4cccnc34)c(OC[C@H]3C[C@H]4NCCO[C@@H]4C3)cc2O1 (single isomer, unassigned) [Example 33]
Ki: 230 nM

COc1cc2c(cc1NC(=O)c1cnn3ccc(N4C[C@H](N)CC(F)(F)C4)nc13)CC(C)(C)O2 (single isomer, unassigned) [Example 37]
Ki: 7.7 nM

C[C@]1(CCC#N)COc2cc(N3CCOCC3)c(NC(=O)c3cnn4cccnc34)cc2C1 (single isomer, unassigned) [Example 59]
Ki: 30 nM

CC(C)(O)[C@H](F)CN1Cc2cc(NC(=O)c3cnn4cccnc34)c(O[C@@H]3CCNC3)cc2C1=O (single isomer, unassigned) [Example 63]
Ki: 5.3 nM

CC(C)(O)[C@H](F)CN1Cc2cc(NC(=O)c3cnn4cccnc34)c(O[C@@H]3CC[C@H](O)C3)cc2C1=O (single isomer, unassigned) [Example 67]
Ki: 1.1 nM

CC(C)Oc1cc2c(cc1NC(=O)c1cnn3cccnc13)CN([C@@H]1CCOC1)C2=O (single isomer, unassigned) [Example 69]
Ki: 1.8 nM

CC(C)(O)[C@H](F)CN1Cc2cc(NC(=O)c3cnn4cccnc34)c(OC[C@H]3CNC(=O)C3)cc2C1=O (single isomer, unassigned) [Example 72]
Ki: 1 nM

CC(C)(O)[C@H](F)CN1Cc2cc(NC(=O)c3cnn4cccnc34)c(O[C@H]3CCOC3)cc2C1=O (single isomer, unassigned) [Example 84]
Ki: 0.49 nM

C[C@@H]1C[C@@H]2CN(c3cc4c(cc3NC(=O)c3cnn5cccnc35)CN(C[C@@H](F)C(C)(C)O)C4=O)CCN2C1 (single isomer, unassigned) [Example 111]
Ki: 9.9 nM

CN(C)c1cc2c(cc1NC(=O)c1cnn3cccnc13)CC(C)(C)[C@@H]2O (single isomer, unassigned) [Example 157]
Ki: 310 nM

CC1(C)Cc2cc(NC(=O)c3cnn4cccnc34)c(N3CCN(CCN)CC3)cc2O1 [Example 1, N-[6-[4-(2-aminoethyl)piperazin-1-yl]-2,2-dimethyl-3H-benzofuran-5-yl]pyrazolo[1,5-a]pyrimidine-3-carboxamide]
Ki [1]: 7.4 nM

CC(=O)NCCN1CCN(c2cc3c(cc2NC(=O)c2cnn4cccnc24)CC(C)(C)O3)CC1 [Example 3, N-(6-(4-(2-Acetamidoethyl)piperazin-1-yl)-2,2-dimethyl-2,3-dihydrobenzofuran-5-yl)pyrazolo[1,5-a]pyrimidine-3-carboxamide]
Ki [1]: 3.7 nM

CN(C)CCN1CCN(c2cc3c(cc2NC(=O)c2cnn4cccnc24)CC(C)(C)O3)CC1 [Example 4, N-(6-(4-(2-(Dimethylamino)ethyl)piperazin-1-yl)-2,2-dimethyl-2,3-dihydrobenzofuran-5-yl)pyrazolo[1,5-a]pyrimidine-3-carboxamide]
Ki [1]: 41 nM

Cc1ccc(=O)[nH]c1CN1CCN(c2cc3c(cc2NC(=O)c2cnn4cccnc24)CC(C)(C)O3)CC1 [Example 5, N-(2,2-Dimethyl-6-(4-((3-methyl-6-oxo-1,6-dihydropyridin-2-yl)methyl)piperazin-1-yl)-2,3-dihydrobenzofuran-5-yl)pyrazolo[1,5-a]pyrimidine-3-carboxamide]
Ki [1]: 18 nM

CC1(C)Cc2cc(NC(=O)c3cnn4cccnc34)c(N3CCN(C[C@@H]4CCCC(=O)N4)CC3)cc2O1 [Example 6, (S)-N-(2,2-Dimethyl-6-(4-((6-oxopiperidin-2-yl)methyl)piperazin-1-yl)-2,3-dihydrobenzofuran-5-yl)pyrazolo[1,5-a]pyrimidine-3-carboxamide]
Ki [1]: 5.3 nM

Cc1nc[nH]c1CN1CCN(c2cc3c(cc2NC(=O)c2cnn4cccnc24)CC(C)(C)O3)CC1 [Example 8, N-(2,2-Dimethyl-6-(4-((4-methyl-1H-imidazol-5-yl)methyl)piperazin-1-yl)-2,3-dihvdrobenzofuran-5-yl)pyrazolo[1,5-a]pyrimidine-3-carboxamide]
Ki [1]: 3.8 nM

CCc1nc[nH]c1CN1CCN(c2cc3c(cc2NC(=O)c2cnn4cccnc24)CC(C)(C)O3)CC1 [Example 9, N-[6-[4-[(4-Ethyl-1H-imidazol-5-yl)methyl]piperazin-1-yl]-2,2-dimethyl-3H-benzofuran-5-yl]pyrazolo[1,5-a]pyrimidine-3-carboxamide]
Ki [1]: 3.9 nM

CC1(C)Cc2cc(NC(=O)c3cnn4cccnc34)c(N3CCN(Cc4[nH]cnc4Cl)CC3)cc2O1 [Example 10, N-(6-(4-((4-Chloro-1H-imidazol-5-yl)methyl)piperazin-1-yl)-2,2-dimethyl-2,3-dihydrobenzofuran-5-yl)pyrazolo[1,5-a]pyrimidine-3-carboxamide]
Ki [1]: 2.3 nM

Cc1ncsc1CN1CCN(c2cc3c(cc2NC(=O)c2cnn4cccnc24)CC(C)(C)O3)CC1 [Example 11, N-(2,2-Dimethyl-6-(4-((4-methylthiazol-5-yl)methyl)piperazin-1-yl)-2,3-dihydrobenzofuran-5-yl)pyrazolo[1,5-a]pyrimidine-3-carboxamide]
Ki [1]: 4.6 nM

Cc1oncc1CN1CCN(c2cc3c(cc2NC(=O)c2cnn4cccnc24)CC(C)(C)O3)CC1 [Example 12, N-(2,2-Dimethyl-6-(4-((5-methylisoxazol-4-yl)methyl)piperazin-1-yl)-2,3-dihydrobenzofuran-5-yl)pyrazolo[1,5-a]pyrimidine-3-carboxamide]
Ki [1]: 5.2 nM

CC1(C)Cc2cc(NC(=O)c3cnn4cccnc34)c(N3CCN(C4COC4)CC3)cc2O1 [Example 13, N-(2,2-Dimethyl-6-(4-(oxetan-3-yl)piperazin-1-yl)-2,3-dihydrobenzofuran-5-yl)pyrazolo[1,5-a]pyrimidine-3-carboxamide]
Ki [1]: 8.1 nM
